Assay results taken from patent US20260274892A1, “MACROCYCLIC BROAD SPECTRUM ANTIBIOTICS” (RQx Pharmaceuticals, Inc., priority 2017, published 2026).

What was measured:
[1] = test system: Escherichia coli ATCC 25922; test: Minimum inhibitory concentration (MIC), CLSI broth micro-dilution, E. coli; assay type: cell-based; conditions: Escherichia coli, ATCC25922, 22 h, Table 6, cation adjusted Mueller Hinton Broth + 0.002% Tween-80, 35° C.
Procedure, shortened: (§1)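 Antibacterial potency is measured as MIC by the CLSI broth dilution method. Bacteria at OD600 0.0005 in Tween-80-supplemented cation-adjusted Mueller Hinton broth face ten twofold compound dilutions for 22 h at 35° C.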

[2] = test system: Methicillin Resistant Staphylococcus aureus strain USA 200; test: Minimum inhibitory concentration (MIC), CLSI broth micro-dilution, S. aureus; assay type: cell-based; conditions: Staphylococcus aureus, MRSA / USA200; Table 6; MRSA USA 200; cation adjusted Mueller Hinton Broth + 0.002% Tween-80; 35° C., 22 hours
Procedure, shortened: as §1

| SMILES | MIC [1] [µM] | MIC [2] [µM] |
| --- | --- | --- |
| Cc1nc(N2CCC(C(C)(C)C)CC2)nc(C)c1C(=O)N[C@@H](CCN)C(=O)N(C)[C@@H]1C(=O)N[C@@H](C)C(=O)N[C@H](C(=O)NCC#N)Cc2ccc(OCCN)c(c2)-c2cc1ccc2OCCN (racemic) [Compound 315, rac-(8S,11S,14S)-3,18-bis(2-aminoethoxy)-N-(cyanomethyl)-11-methyl-14-[methyl-[rac-(2S)-4-amino-2-[[2-(4-tert-butyl-1-piperidyl)-4,6-dimethyl-pyrimidine-5-carbonyl]amino]butanoyl]amino]-10,13-dioxo-9,12-diazatricyclo[13.3.1.12,6]icosa-1(18),2(20),3,5,15(19),16-hexaene-8-carboxamide] | 0.25 | 0.016 |
| C[C@@H]1NC(=O)[C@@H](N(C)C(=O)[C@H](CCN)NC(=O)[C@H]2CC[C@H](c3ccc(C(C)(C)C)cc3)CC2)c2ccc(OCCN)c(c2)-c2cc(ccc2OCCN)C[C@@H](C(=O)NCC#N)NC1=O [Compound 391, rac-(8S,11S,14S)-3,18-bis(2-aminoethoxy)-N-(cyanomethyl)-11-methyl-14-[methyl-[rac-(2S)-4-amino-2-[[4-(4-tert-butylphenyl)cyclohexanecarbonyl]amino]butanoyl]amino]-10,13-dioxo-9,12-diazatricyclo[13.3.1.12,6]icosa-1(18),2(20),3,5,15(19),16-hexaene-8-carboxamide] | 0.25 | 0.031 |

More lines, now with the values ahead:

| MIC [1] [µM] | MIC [2] [µM] | SMILES |
| --- | --- | --- |
| 0.063 | 0.023 | Cc1nc(-c2ccc(C=C3CCCC3)cc2)nc(C)c1C(=O)N[C@@H](CCN)C(=O)N(C)[C@@H]1C(=O)N[C@@H](C)C(=O)N[C@H](C(=O)NCC#N)Cc2ccc(OCCN)c(c2)-c2cc1ccc2OCCN (racemic) [Compound 274, rac-(8S,11S,14S)-3,18-bis(2-aminoethoxy)-N-(cyanomethyl)-11-methyl-14-[methyl-[rac-(2S)-4-amino-2-[[2-[4-(cyclopentylidenemethyl)phenyl]-4,6-dimethyl-pyrimidine-5-carbonyl]amino]butanoyl]amino]-10,13-dioxo-9,12-diazatricyclo[13.3.1.12,6]icosa-1(18),2(20),3,5,15(19),16-hexaene-8-carboxamide] |
| 0.53 | 0.016 | Cc1nc(-c2cccc(C(C)(C)C)c2)nc(C)c1C(=O)N[C@@H](CCN)C(=O)N(C)[C@@H]1C(=O)N[C@@H](C)C(=O)N[C@H](C(=O)NCC#N)Cc2ccc(OCCN)c(c2)-c2cc1ccc2OCCN (racemic) [Compound 263, rac-(8S,11S,14S)-3,18-bis(2-aminoethoxy)-N-(cyanomethyl)-11-methyl-14-[methyl-[rac-(2S)-4-amino-2-[[2-(3-tert-butylphenyl)-4,6-dimethyl-pyrimidine-5-carbonyl]amino]butanoyl]amino]-10,13-dioxo-9,12-diazatricyclo[13.3.1.12,6]icosa-1(18),2(20),3,5,15(19),16-hexaene-8-carboxamide] |
| 0.065 | 0.016 | CCC1(c2ccc(-c3nc(C)c(C(=O)N[C@@H](CCN)C(=O)N(C)[C@@H]4C(=O)N[C@@H](C)C(=O)N[C@H](C(=O)NCC#N)Cc5ccc(OCCN)c(c5)-c5cc4ccc5OCCN)c(C)n3)cc2)CC1 (racemic) [Compound 281, rac-(8S,11S,14S)-3,18-bis(2-aminoethoxy)-N-(cyanomethyl)-11-methyl-14-[methyl-[rac-(2S)-4-amino-2-[[2-[4-(1-ethylcyclopropyl)phenyl]-4,6-dimethyl-pyrimidine-5-carbonyl]amino]butanoyl]amino]-10,13-dioxo-9,12-diazatricyclo[13.3.1.12,6]icosa-1(18),2(20),3,5,15(19),16-hexaene-8-carboxamide] |
